Columns and labels:
Assay in all cases: Test D controlled growth environment herbicide test, pre- and postemergence
Type in all cases: in vivo
[1] = test system: buckwheat, wild (wild buckwheat, Polygonum convolvulus)
In short: (§1)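 Species sown in silt loam and sprayed preemergence, or grown in peat-based medium to 2–18 cm (1- to 4-leaf stage) and sprayed postemergence, with compounds in non-phytotoxic solvent plus surfactant. Visual injury scored versus controls after 14–21 d in a controlled environment, 0 (no effect) to 100 (complete control).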

[2] = test system: speedwell (bird's-eye speedwell, Veronica persica)
In short: as §1

[3] = test system: deadnettle (henbit deadnettle, Lamium amplexicaule)
In short: as §1

[4] = test system: field violet (Viola arvensis)
In short: as §1

[5] = test system: oilseed rape (Brassica napus)
In short: as §1

[6] = test system: ryegrass, Italian (Italian ryegrass, Lolium multiflorum)
In short: as §1

[7] = test system: kochia (Kochia scoparia)
In short: as §1

[8] = test system: radish, wild (wild radish, Raphanus raphanistrum)
In short: as §1

[9] = test system: galium (catchweed bedstraw, Galium aparine)
In short: as §1

[10] = test system: canarygrass (Phalaris minor)
In short: as §1

[11] = test system: bluegrass (annual bluegrass, Poa annua)
In short: as §1

[12] = test system: barley, spring (spring barley, Hordeum vulgare)
In short: as §1

[13] = test system: Russian thistle (Salsola kali)
In short: as §1

[14] = Postemergence, 31 g ai/ha, scale 0 to 100 (0 no effect, 100 complete control)
[15] = Postemergence, 125 g ai/ha, visual rating on scale 0 (no effect) to 100 (complete control), 14 to 21 d
[16] = Postemergence, 250 g ai/ha, scale 0 to 100 (0 no effect, 100 complete control)
[17] = Preemergence, 62 g ai/ha, scale 0 to 100 (0 no effect, 100 complete control)
[18] = Preemergence, 125 g ai/ha, scale 0 to 100 (0 no effect, 100 complete control)
[19] = Preemergence, 250 g ai/ha, scale 0 to 100, 0 no effect, 100 complete control
[20] = postemergence, 62 g ai/ha, scale 0 to 100, 0 no effect, 100 complete control

COC(=O)Oc1c(C)nn(C)c(=O)c1-c1c(C)sc2ccc(C)cc12 [Compound 80]
85: Plant response rating, Speedwell [2, 15] | Plant response rating, Field Violet [4, 20] | Ryegrass, Italian plant response rating [6, 14] | Plant response rating, Canarygrass [10, 15] | Plant response rating (scale of 0 to 100), Canarygrass ([10]; Preemergence, 31 g ai/ha)
0: Plant response rating (scale of 0 to 100), Buckwheat, Wild ([1]; Preemergence, 31 g ai/ha) | Barley, Spring plant response rating [12, 14] | Plant response rating (scale of 0 to 100), Barley, Spring ([12]; Preemergence, 31 g ai/ha) | Plant response rating, Barley, Spring [12, 17] | Plant response rating, Barley, Spring [12, 19]
75: Plant response rating, Speedwell [2, 20] | Plant response rating, Deadnettle [3, 19] | Plant response rating, Oilseed Rape [5, 16] | Plant response rating, Kochia [7, 17] | Plant response rating, Radish, Wild [8, 17] | Plant response rating, Bluegrass [11, 18] | Plant response rating, Bluegrass [11, 19]
5: Plant response rating, Barley, Spring [12, 18]
45: Plant response rating, Bluegrass [11, 16]
25: Plant response rating, Buckwheat, Wild [1, 17] | Plant response rating, Deadnettle [3, 20] | Plant response rating (scale of 0 to 100), Galium ([9]; Preemergence, 31 g ai/ha) | Plant response rating, Barley, Spring [12, 16]
15: Oilseed Rape plant response rating [5, 14] | Bluegrass plant response rating [11, 14] | Plant response rating, Barley, Spring [12, 15]
98: Plant response rating, Ryegrass, Italian [6, 15]
90: Field Violet plant response rating [4, 14] | Plant response rating (scale of 0 to 100), Ryegrass, Italian ([6]; Preemergence, 31 g ai/ha) | Plant response rating, Ryegrass, Italian [6, 17] | Galium plant response rating [9, 14] | Plant response rating, Galium [9, 19] | Plant response rating, Canarygrass [10, 16] | Plant response rating, Canarygrass [10, 17] | Plant response rating, Canarygrass [10, 18]
95: Plant response rating, Speedwell [2, 17] | Plant response rating, Speedwell [2, 18] | Plant response rating, Field Violet [4, 15] | Plant response rating, Field Violet [4, 17] | Plant response rating, Field Violet [4, 19] | Plant response rating, Ryegrass, Italian [6, 18] | Plant response rating, Ryegrass, Italian [6, 20] | Plant response rating, Galium [9, 15] | Plant response rating, Galium [9, 20] | Plant response rating, Russian Thistle [13, 17] | Plant response rating, Russian Thistle [13, 18]
50: Plant response rating, Deadnettle [3, 16] | Plant response rating, Radish, Wild [8, 15] | Plant response rating, Radish, Wild [8, 20]
35: Deadnettle plant response rating [3, 14] | Plant response rating, Deadnettle [3, 15] | Plant response rating (scale of 0 to 100), Oilseed Rape ([5]; Preemergence, 31 g ai/ha) | Plant response rating, Oilseed Rape [5, 17] | Plant response rating, Oilseed Rape [5, 18] | Plant response rating (scale of 0 to 100), Kochia ([7]; Preemergence, 31 g ai/ha) | Plant response rating, Bluegrass [11, 15] | Plant response rating, Bluegrass [11, 20]
20: Plant response rating, Buckwheat, Wild [1, 18] | Plant response rating, Buckwheat, Wild [1, 19] | Plant response rating (scale of 0 to 100), Radish, Wild ([8]; Preemergence, 31 g ai/ha) | Plant response rating (scale of 0 to 100), Bluegrass ([11]; Preemergence, 31 g ai/ha)
10: Radish, Wild plant response rating [8, 14] | Plant response rating, Barley, Spring [12, 20] | Plant response rating (scale of 0 to 100), Russian Thistle ([13]; Preemergence, 31 g ai/ha)
55: Plant response rating (scale of 0 to 100), Deadnettle ([3]; Preemergence, 31 g ai/ha) | Plant response rating (scale of 0 to 100), Field Violet ([4]; Preemergence, 31 g ai/ha) | Plant response rating, Oilseed Rape [5, 20] | Canarygrass plant response rating [10, 14] | Plant response rating, Bluegrass [11, 17]
70: Plant response rating, Deadnettle [3, 18] | Russian Thistle plant response rating [13, 14] | Plant response rating, Russian Thistle [13, 20]
80: Plant response rating, Speedwell [2, 16] | Plant response rating, Galium [9, 18] | Plant response rating, Canarygrass [10, 20] | Plant response rating, Russian Thistle [13, 15] | Plant response rating, Russian Thistle [13, 16]
65: Speedwell plant response rating [2, 14] | Plant response rating (scale of 0 to 100), Speedwell ([2]; Preemergence, 31 g ai/ha) | Plant response rating, Deadnettle [3, 17] | Plant response rating, Oilseed Rape [5, 15] | Plant response rating, Radish, Wild [8, 16]
100: Buckwheat, Wild plant response rating [1, 14] | Plant response rating, Buckwheat, Wild [1, 15] | Plant response rating, Buckwheat, Wild [1, 16] | Plant response rating, Buckwheat, Wild [1, 20] | Plant response rating, Speedwell [2, 19] | Plant response rating, Field Violet [4, 16] | Plant response rating, Field Violet [4, 18] | Plant response rating, Ryegrass, Italian [6, 16] | Plant response rating, Ryegrass, Italian [6, 19] | Kochia plant response rating [7, 14] | Plant response rating, Kochia [7, 15] | Plant response rating, Kochia [7, 16] | Plant response rating, Kochia [7, 18] | Plant response rating, Kochia [7, 19] | Plant response rating, Kochia [7, 20] | Plant response rating, Radish, Wild [8, 18] | Plant response rating, Radish, Wild [8, 19] | Plant response rating, Galium [9, 16] | Plant response rating, Canarygrass [10, 19] | Plant response rating, Russian Thistle [13, 19]
40: Plant response rating, Oilseed Rape [5, 19] | Plant response rating, Galium [9, 17]
